Results: patent US20170266164A1, “NEW METHODS AND USES” (Vicore Pharma AB, priority 2014, published 2017)
“Also recorded” adds a separate entry of the source.

Key:
Berk-SS mice = assay: Urine concentrating ability (urine osmolality), glomerulopathy and survival in drug-treated sickle mice; type: in vivo
Source text: The Berk-AA mice are still relatively outbred and cannot be transplanted into BI/6 or Berk-SS mice without significant graft versus host disease. Knock-in SS (B6; 129-Hba^tm1(HBA)Tow Hbb^tm2(HBG1,HBB*)Tow/Hbb^tm3(HBG1,HBB)Tow/J) mice were kindly provided by Dr. Timothy Townes (University of Alabama, Birmingham). AT1R^−/− mice (B6.129P2Agtr1a^tm1Unc/J) were purchased from Jackson laboratories (Bar Harbor, Me.). AT2R^−/− mice were kindly provided by Dr. Tadashi Inagami (Vanderbilt University School of Medicine, Nashville, Tenn.). […]
Twenty-four hour urine was collected using metabolic cages. Urine volume was measured and then protein stabilization buffer (0.4 mM ophenanthroline, 1 mM p-hydroxymercuribenzoic acid and 0.12 mM pepstatin A and 0.5M EDTA, pH 8.0) was added to a portion of urine to stabilize Ang-11. […] Urine albumin level was measured using the mouse albumin ELISA kit (Bethyl Laboratories, Montgomery, Tex., catalog# E90-134). […] Urine osmolality was measured by vapor pressure osmometer, Vapro 5600, (Wescor Biomedical Systems, South Logan, Utah). Urine creatinine was measured using the creatinine parameter assay kit (R&D Systems, Minneapolis, Minn., catalog# KGE005). Plasma creatinine was measured using the creatinine assay kit (Abcam, Cambridge, Mass., catalog# ab65340) following the manufacturer's instructions. […]

AT2 receptor = target: T1, AT2 receptor (Rattus norvegicus, UniProt P35351); settings: rat heart; regulation of TIMP1/MMP9 and TGF β1; cited from earlier work
T1 construct: Stimulation of the AT2 receptor with C21 (as defined herein) ameliorates LV fibrosis; host or cells: rat heart (in vivo, endogenous receptor)
T1 sequence (P35351 1-363): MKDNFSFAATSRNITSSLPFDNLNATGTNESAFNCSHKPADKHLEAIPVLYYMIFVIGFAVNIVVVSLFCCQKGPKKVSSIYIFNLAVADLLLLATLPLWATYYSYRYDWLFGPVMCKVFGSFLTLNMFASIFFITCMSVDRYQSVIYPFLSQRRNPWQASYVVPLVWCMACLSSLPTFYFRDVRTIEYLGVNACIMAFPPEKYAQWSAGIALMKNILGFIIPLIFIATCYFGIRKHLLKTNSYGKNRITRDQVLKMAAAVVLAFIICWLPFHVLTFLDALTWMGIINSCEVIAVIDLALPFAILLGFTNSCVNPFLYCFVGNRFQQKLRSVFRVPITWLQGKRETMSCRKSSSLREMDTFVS

Berk-SS/WT chimeric mice = assay: Urine albumin, urine osmolality and glomerular disease in drug-treated sickle hematopoietic chimeras; type: in vivo, mouse; settings: for albuminuria: Berk-SS/WT chimeric mice vs untreated chimeras; for glomerular disease: hematopoietic SCD chimeras; for UCA (urine osmolality): sickle chimeric mice, after 8 hour water deprivation
Source text: The Berk-AA mice are still relatively outbred and cannot be transplanted into BI/6 or Berk-SS mice without significant graft versus host disease. Knock-in SS (B6; 129-Hba^tm1(HBA)Tow Hbb^tm2(HBG1,HBB*)Tow/Hbb^tm3(HBG1,HBB)Tow/J) mice were kindly provided by Dr. Timothy Townes (University of Alabama, Birmingham). AT1R^-/- mice ([…]1Unc/J) were purchased from Jackson laboratories (Bar Harbor, Me.). AT2R^-/- mice were kindly provided by Dr. […] (Vanderbilt University School of Medicine, Nashville, Tenn.). Bone marrow from donor Berkeley sickle mice (or 057BI/6 control mice) were distributed 1:5 among the 057BI/6, AT1R^-/- and AT2R^-/- lethally irradiated (1175 cGy) recipient mice. All animals were maintained in the Cincinnati Children's Research Foundation's vivarium using protocols approved by the Institutional Animal Care and Use Committee. Twenty-four hour urine was collected using metabolic cages. Urine volume was measured and then protein stabilization buffer (0.4 mM ophenanthroline, 1 mM p-hydroxymercuribenzoic acid and 0.12 mM pepstatin A and 0.5M EDTA, pH 8.0) was added to a portion of urine to stabilize Ang-11. The rest of the urine was used for other analyses, including GFR, albumin, osmolality. Temporal assessments of urine albumin, creatinine and osmolality were made after an 8 hour water deprivation in SCD chimeric mice. […] Therefore, in Berk-SS mice (untransplanted/“straight SCD” native sickle mice) no water deprivation was performed prior to urine collection. Urine albumin level was measured using the mouse albumin ELISA kit (Bethyl Laboratories, Montgomery, Tex., catalog# E90-134). The ELISA was performed in a 96-well clear micro-plate (R&D systems, Minneapolis, Minn., catalog # DY990) as per manufacturer's instructions. Urine osmolality was measured by vapor pressure osmometer, Vapro 5600, (Wescor Biomedical Systems, South Logan, Utah). Urine creatinine was measured using the creatinine parameter assay kit (R&D Systems, Minneapolis, Minn., catalog# KGE005). Plasma creatinine was measured using the creatinine assay kit (Abcam, Cambridge, Mass., catalog# ab65340) following the manufacturer's instructions. Mice were given the following drug treatments: a) Captopril (West-Ward Pharmaceutical, West Eatontown, N.J., NDC number #0143-1173-01) 0.15 mg/ml in drinking water. b) Losartan (Teva Pharmaceuticals USA Inc, North Wales, Pa., -NDC number#00937366-98) 0.3-0.6 mg/ml in drinking water. c) C21 (Vicore Pharma AB, […], Sweden; Batch/Lot number # A11202910) 10 mg/kg/day in drinking water. Losartan and captopril water bottles were changed twice a week with fresh drugs and C21 was changed daily. In order to determine the role of the angiotensin receptors in SN, the inventors generated hematopoietic chimeric animals through bone marrow (BM) transplantation. First, they transplanted BM from Berk-SS mice into WT [057BI/6 (CD45.2+) or congenic CD45.1+BI/6] mice; mice that developed >95% sickle chimerism were followed for 6-9 months. Berk-SS/WT chimeras also developed hyperangiotensinemia followed by SN. Like in native (untransplanted) sickle mice, losartan or captopril ameliorated glomerular disease, but worsened UCA of hematopoietic SCD chimeras.

[1] = tested on: erythrocytes and platelets of SCD mice; assay: ROS analysis (CM-H2DCFDA flow cytometry) of blood cells of drug-treated SCD mice; type: in vivo, mouse
Experimental: (§1) ROS was measured in WBC, RBC and platelets by mixing 0.5 μl of whole blood with 100 μl of FACS buffer (1×PBS, 0.5% bovine serum albumin), 0.1 μl of biotin anti-mouse Ter-119/erythroid Ly-76 antibody (BD Biosciences, San Jose, Calif., catalog#553672), 1 μl of Streptavidin APC-CyTM^7 (BD Biosciences, catalog#554063), 1 μl of PE anti-mouse CD45 antibody (BD Biosciences, cat#553081). […] All the tubes were incubated at room temperature for 20-30 minutes. The samples were washed with PBS at 200×g for 5 min and 100 μl of CM-H2DCFDA in 1:200 dilution was added to all sample tubes and the CM-H2DCFDA compensation tube while 100 μl of PBS was added to the rest of three compensation samples. The tubes were incubated for 30 minutes at 37° C. All the tubes were washed with 500 μl of PBS and centrifuged at 200×g for 5 min. After removing the supernatant the pellet was re-suspended in 200 μl of ice-cold PBS. Samples were stored on ice until analyzed on a BD FACSCantoTM II flow cytometer (BD Biosciences, San Jose, Calif.) by gating on the WBC, RBC and platelets. Mice were given the following drug treatments: a) Captopril (West-Ward Pharmaceutical, West Eatontown, N.J., NDC number #0143-1173-01) 0.15 mg/ml in drinking water. b) Losartan (Teva Pharmaceuticals USA Inc, North Wales, Pa., -NDC number#00937366-98) 0.3-0.6 mg/ml in drinking water. c) C21 (Vicore Pharma AB, […], Sweden; Batch/Lot number # A11202910) 10 mg/kg/day in drinking water. Losartan and captopril water bottles were changed twice a week with fresh drugs and C21 was changed daily.

[2] = tested on: RBC and platelets of Berk-SS/WT hematopoietic chimeras; assay: ROS analysis (CM-H2DCFDA flow cytometry) of blood cells of drug-treated Berk-SS chimeras; type: in vivo, mouse
Experimental: as §1

Angiotensin-II = assay: Plasma and urine Angiotensin-II level (EIA) in drug-treated sickle mice; type: in vivo, mouse; settings: compared to untreated Berk-SS controls
Experimental: Urine and plasma Angiotensin-II level was measured by using the Angiotensin II EIA kit (Cayman Chemical Company, Ann Arbor, Mich., catalog# A05880) following the manufacturer's instructions.
Mice were given the following drug treatments: a) Captopril (West-Ward Pharmaceutical, West Eatontown, N.J., NDC number #0143-1173-01) 0.15 mg/ml in drinking water. b) Losartan (Teva Pharmaceuticals USA Inc, North Wales, Pa., -NDC number#00937366-98) 0.3-0.6 mg/ml in drinking water. c) C21 (Vicore Pharma AB, Haraldsgatan 5, S-413 14 Goteborg, Sweden; Batch/Lot number # A11202910) 10 mg/kg/day in drinking water. Losartan and captopril water bottles were changed twice a week with fresh drugs and C21 was changed daily.

Row | SMILES | urine concentrating ability (UCA) (Berk-SS mice; sickle (SCD) mice, drug in drinking water) | LV fibrosis (AT2 receptor) | mortality (Berk-SS mice; Berk-SS mice on drug from 4 weeks of age, from severe hyposthenuria and dehydration) | albuminuria (Berk-SS/WT chimeric mice) | glomerular disease (Berk-SS/WT chimeric mice) | UCA (urine osmolality) (Berk-SS/WT chimeric mice) | erythrocyte ROS [1] | platelet ROS [1] | RBC (erythrocyte) ROS [2] | platelet ROS [2] | plasma AngII levels (Angiotensin-II) | urine AngII levels (Angiotensin-II)
1 | CCCCOC(=O)NS(=O)(=O)c1sc(CC(C)C)cc1-c1ccc(Cn2ccnc2)cc1 [Compound C21, N-butyloxycarbonyl-3-(4-imidazol-1-ylmethylphenyl)-5-iso-butylthiophene-2-sulfonamide] | improve | ameliorates |  |  |  |  |  |  |  |  |  | 
2 | C[C@H](CS)C(=O)N1CCC[C@H]1C(=O)O [captopril] |  |  | high mortality | did not develop albuminuria | ameliorated | worsened | significantly lowered; also recorded: specifically lowered | unaffected | significantly lowered | not platelets; also recorded: unchanged | lower; also recorded: reduced | lower; also recorded: reduced
3 | CCCCc1nc(Cl)c(CO)n1Cc1ccc(-c2ccccc2-c2nn[nH]n2)cc1 [losartan] |  |  |  | did not develop albuminuria | ameliorated | worsened | significantly lowered; also recorded: specifically lowered | unaffected | significantly lowered | not platelets; also recorded: unchanged | lower; also recorded: reduced | lower; also recorded: reduced
